# Data from US7816075B2, “Methods and compositions using stearoyl-CoA desaturase to identify triglyceride reducing therapeutic agents” (Xenon Pharmaceuticals Inc., priority 2000, dated 2010).
# Experiments:
# [1] = system: human SCD mRNA expression; test: Northern blot of SCD mRNA in treated HepG2 cells; type: cell-based; conditions: range of doses, cholesterol 10 μg/ml with 1 μg/ml 25-hydroxycholesterol, FIG. 15
# Experimental: FIG. 15. Human HepG2 cells cultured and treated with a range of doses of arachidonic acid, DHA or 10 μg/ml cholesterol or EPA as indicated. Total mRNA was isolated and quantified. Isolation and Analysis of RNA-Total RNA was isolated from HepG2 cells using the acid guanidinium-phenol-chloroform extraction method. Twenty micrograms of total RNA was separated by 0.8% agarose/2.2 M formaldehyde gel electrophoresis and transferred onto nylon membrane. The membrane was hybridized with ^32P-labeled human SCD cDNA probe generated by PCR as follows: pAL15 probe was used as control for equal loading. We tested whether the human SCD gene expression was also repressed by cholesterol and polyunsaturated fatty acids. Human HepG2 cells were cultured and then treated with 100 μM arachidonic acid, DHA or 10 μg/ml cholesterol and 1 μg/ml of 25-hydroxycholesterol cholesterol as we have described previously. Total mRNA was isolated and subjected to northern blot analysis using a probe corresponding to the human cDNA and generated by the PCR method using primers based on published human SCD cDNA sequence.
# human SCD promoter = test: Human SCD promoter-luciferase reporter (pSCD-500) in transfected HepG2 cells; type: cell-based; conditions: for SCD promoter activity: HepG2 cells co-transfected with mature SREBP-1a, in the presence of cholesterol, fatty acids as albumin complexes (data not shown)
# Experimental: The decrease in promoter activity in the reporter construct correlated with decreases in endogenous SCD mRNA and protein levels. […] Our studies indicate that like the mouse SCD1 gene, the human SCD gene is regulated by polyunsaturated fatty acids and cholesterol at the level of gene transcription and that SREBP plays a role in the transcriptional activation of this gene. Cell Culture and DNA transfections—HepG2 cells, were grown in Low Glucose DMEM supplemented with 10% Fetal Bovine Serum and 1% Penicillin/Streptomycin solution and maintained at 37 C, 5% CO2 in a humidified incubator. Cells were passaged into 6 cm dishes to give 40-70% confluence in about 12-16 hours. Cells were then transfected with 5 μg plasmid DNA per plate of pSCD-500 or the Basic PGL3 reporter as well as well as the pRL-TK, internal controls (Promega) using the LT-1 transfection reagent (Pan Vera). After 48 hours, cells were rinsed with PBS and then treated in Williams' E Media, a fatty acid-free media, containing insulin, dexamethasone, and appropriate concentrations of albumin-conjugated fatty acids as indicated in figures and legends. Cells were also treated with ethanol alone (as control) or cholesterol (10 μg/mL) and 25-OH cholesterol (1 μg/mL) dissolved in ethanol. After an additional 24 h, extracts were prepared and assayed for luciferase activity. Non-transfected cells were used as the blank and Renilla Luciferase was used as an internal control. Cell extracts were assayed for protein according to Lowry, and all results were normalized to protein concentration as well as to renilla luciferase counts. Each experiment was repeated at least three times, and all data are expressed as means±SEM. […] To observe the regulatory effects of mature SREBP-1a and PUFAs on the activity of SCD promoters, HepG2 hepatic cells were transiently co-transfected with 20 ng (per 6-cm dish) of plasmid DNA containing the human SCD promoter as described above but this time the transfections were carried out in the presence of cholesterol to inhibit the maturation of the endogenous SREBP and thus ensure that there was little mature form of the endogenous SREBP present in the cells. After transfection, the cells were then treated with, arachidonic acid, EPA and DHA as albumin complexes and luciferase activity was then assayed using a luminometer. If SREBP mediates PUFA repression of the human SCD gene, SCD promoter activity would not diminish upon treatment the transfected cells with PUFA.
# SCD = molecular target: T1, SCD (Homo sapiens, UniProt O00767); conditions: known from the literature; cited from earlier work
# T1 sequence (O00767 1-359): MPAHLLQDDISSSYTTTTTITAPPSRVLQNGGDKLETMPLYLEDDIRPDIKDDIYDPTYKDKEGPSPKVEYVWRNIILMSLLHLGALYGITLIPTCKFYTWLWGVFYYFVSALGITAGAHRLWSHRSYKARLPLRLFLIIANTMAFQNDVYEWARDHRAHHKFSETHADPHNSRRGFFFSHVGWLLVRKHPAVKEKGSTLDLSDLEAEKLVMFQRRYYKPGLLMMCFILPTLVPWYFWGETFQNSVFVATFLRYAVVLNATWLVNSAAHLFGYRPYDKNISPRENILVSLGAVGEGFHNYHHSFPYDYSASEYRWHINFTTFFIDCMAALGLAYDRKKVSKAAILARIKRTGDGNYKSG
# SCD1 mRNA = conditions: known from the literature; cited from earlier work
# SCD protein = test: Western blot of SCD protein in treated HepG2 cells; type: cell-based, human; conditions: western blot of protein extracts (data not shown)
# Experimental: Immunoblotting—Cell extracts were prepared from HepG2 cells that had been treated with the various fatty acids or cholesterol as described by Heinemann et al (17). The same amount of protein (60 μg) from each fraction was subjected to 10% SDS-polyacrylamide gel electrophoresis and transferred to Immobilon-P transfer membranes at 4° C. After blocking with 10% non-fat milk in TBS buffer (pH 8.0) plus 0.5% Tween at 4° C. overnight, the membrane was washed and incubated with rabbit anti-rat SCD as primary antibody (17) and goat anti-rabbit IgG-HRP conjugate as the secondary antibody. Visualization of the SCD protein was performed with ECL western blot detection kit. We tested whether the human SCD gene expression was also repressed by cholesterol and polyunsaturated fatty acids. Human HepG2 cells were cultured and then treated with 100 μM arachidonic acid, DHA or 10 μg/ml cholesterol and 1 μg/ml of 25-hydroxycholesterol cholesterol as we have described previously. Total mRNA was isolated and subjected to northern blot analysis using a probe corresponding to the human cDNA and generated by the PCR method using primers based on published human SCD cDNA sequence.
# SCD1 = molecular target: T2, SCD1 (Mus musculus, UniProt P13516); test: SCD1 desaturase activity assay, transfer of 3H from 3H-stearoyl CoA to water in liver microsomes; type: biochemical; conditions: for inhibition of SCD1: pre-conjugated to CoA (microsomes incubated with CoA and ATP before 3H-stearoyl CoA)
# T2 construct: from tissue; host or cells: mouse liver microsomes (wild type, after a high carbohydrate fat-free diet)
# T2 sequence (P13516 1-355): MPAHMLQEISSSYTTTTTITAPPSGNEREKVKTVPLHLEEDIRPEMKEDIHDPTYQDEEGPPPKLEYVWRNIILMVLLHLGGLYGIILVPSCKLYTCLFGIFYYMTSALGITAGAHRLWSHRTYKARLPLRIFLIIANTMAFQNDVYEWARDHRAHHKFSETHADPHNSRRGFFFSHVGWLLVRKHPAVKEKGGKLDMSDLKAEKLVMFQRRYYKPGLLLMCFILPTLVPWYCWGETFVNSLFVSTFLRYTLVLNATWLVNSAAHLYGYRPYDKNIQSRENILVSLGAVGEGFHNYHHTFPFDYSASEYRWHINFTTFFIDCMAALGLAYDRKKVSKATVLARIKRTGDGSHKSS
# Experimental: Microsomes from wild type livers were used for this experiment. A turnover number for SCD1 activity under these conditions was estimated at 2 nmol/min/mg protein, which is about half that observed at 37° C.
# Livers were collected from wild type and SCD1 knockout mice following 3 days on a high carbohydrate fat-free diet (this induces SCD1 expression in liver by about 50-fold), homogenized and a portion used for microsome purification. ^3H-water production was determined for 15 minutes at RT (room temperature) in both homogenate and microsome preparations at equivalent protein concentration, followed by quenching the reaction with acid and using charcoal to separate substrate from product. Quenching the sample with acid prior to the addition of substrate offers a blank, or control containing background radioactivity without any desaturation reaction. […] The “window”, or SCD1-dependent desaturation in this assay, is a highly visible and significant 160-fold difference between wild type and SCD1 knockout microsomes.
# Microsomes from wild type mice were used to test the effectiveness of three known inhibitors of SCD1: conjugated linoleic acid (CLA), 9-thia stearic acid (9-thia) and sterculic acid (SA). […] This experiment establishes that SCD1 activity can be inhibited with known inhibitors but they appear to require conjugation with CoA. An important use of this screening assay is to find small molecules that are potent inhibitors of SCD1 biological activity without conjugation to CoA.
# In a preferred embodiment, the assay makes use of ^3H-stearoyl CoA (with the ^3H on the 9 and 10 carbon atoms), the substrate for SCD1. Desaturation by SCD1, produces oleoyl CoA and 3H-water molecules. The reaction is run at room temperature, quenched with acid and then activated charcoal is used to separate unreacted substrate from the radioactive water product. The charcoal is sedimented and amount of radioactivity in the supernatant is determined by liquid scintillation counting. This assay is specific for SCD1-dependent desaturation as judged by the difference seen when comparing the activity in wild type and SCD1-knockout tissues. Further, the method is easily adapted to high throughput as it is cell-free, conducted at room temperature and is relatively brief (1 hour reaction time period versus previous period of 2 days). This procedure is illustrated more fully in FIGS. 17 to 20.
# [2] = added as the free fatty acid, microsomes from wild type mice (FIG. 19 panel A)
molecule,measurement,setting,value
"CCCCC/C=C\C/C=C\C/C=C\C/C=C\CCCC(=O)O [AA, arachidonic acid]",human SCD mRNA expression,[1],decreased the human SCD mRNA expression in a dose dependent manner
same,SCD promoter activity,human SCD promoter,continued to repress SCD promoter activity with only a slight attenuation
"CCCCCC/C=C/C=C\CCCCCCCC(=O)O [Cis-9, trans-11 conjugated linoleic acid]",inhibition of SCD enzyme activity,SCD,does not
"CCCCC/C=C\C=C\CCCCCCCCC(=O)O [Cis-12, trans-10 conjugated linoleic acid]",inhibition of SCD enzyme activity,SCD,effectively inhibit SCD enzyme activity
same,abundance of SCD1 mRNA,SCD1 mRNA,reduce the abundance of SCD1 mRNA
CC/C=C\C/C=C\C/C=C\C/C=C\C/C=C\C/C=C\CCC(=O)O [DHA],human SCD mRNA expression,[1],decreased the human SCD mRNA expression in a dose dependent manner
same,SCD promoter activity,human SCD promoter,continued to repress SCD promoter activity with only a slight attenuation
CC/C=C\C/C=C\C/C=C\C/C=C\C/C=C\CCCC(=O)O [EPA],SCD promoter activity,human SCD promoter,continued to repress SCD promoter activity with only a slight attenuation
CC(C)CCC[C@@H](C)[C@H]1CC[C@H]2[C@@H]3CC=C4C[C@@H](O)CC[C@]4(C)[C@H]3CC[C@]12C [cholesterol],levels of the SCD protein,SCD protein,decreased the levels of the SCD protein
same,human SCD mRNA expression,[1],decreased the human SCD mRNA expression in a dose dependent manner
same,SCD promoter-luciferase activity,human SCD promoter; transiently transfected HepG2 cells,decreased the SCD promoter-luciferase activity
"CCCCCCCCC1=C(CCCCCCCC(=O)O)C1 [sterculic acid, 8-(2-octyl-cyclopropenyl)octanoic acid]",suppression of SCD1 activity,SCD1; [2],none were effective
same,inhibition of SCD1,SCD1; FIG. 19 panel B,graded inhibition
same,suppression of SCD1 activity,"SCD1; pre-conjugated to CoA, preincubation condition, FIG. 19 panel B",~100%
conjugated linoleic acid,suppression of SCD1 activity,SCD1; [2],none were effective
same,inhibition of SCD1,SCD1; FIG. 19 panel B,graded inhibition
